These are literature values, as cited in US20240398845A1, “USE OF SGLT-2 INHIBITORS FOR THE PREVENTION AND/OR TREATMENT OF CARDIAC DISEASES IN NON-HUMAN MAMMALS EXCLUDING FELINES, IN PARTICULAR CANINES” (BOEHRINGER INGELHEIM VETMEDICA GMBH, priority 2021, published 2024).

The subject of data set [1] is canine atrial fibrillation model. The conditions noted are these: cited from earlier work.
Data set [2] concerns mitral regurgitation-induced myocardial dysfunction. As to conditions: cited from earlier work.
In data set [3] the test system is non-diabetic heart failure. The conditions noted are these: cited from earlier work.
Data set [4] has as its system adults with heart failure and reduced ejection fraction. The conditions noted are these: with and without diabetes; cited from earlier work.
For another data set, the system named is Stage B2 dogs (MMVD). As to conditions: cited from earlier work.

With `Cc1ccc([C@@H]2O[C@H](CO)[C@@H](O)[C@H](O)[C@H]2O)cc1Cc1ccc(-c2ccc(F)cc2)s1` [canagliflozin, Canagliflozin], the atrial remodeling entry in data set [1] was “suppresses atrial remodeling”.
For the compound `CCOc1ccc(Cc2cc([C@@H]3O[C@H](CO)[C@@H](O)[C@H](O)[C@H]3O)ccc2Cl)cc1` [dapagliflozin, Dapagliflozin], in data set [2], the “cardiac hemodynamics and arrhythmogenesis” value was “improves cardiac hemodynamics and mitigates arrhythmogenesis”.
Regarding `OC[C@H]1O[C@@H](c2ccc(Cl)c(Cc3ccc(O[C@H]4CCOC4)cc3)c2)[C@H](O)[C@@H](O)[C@@H]1O` [empagliflozin, Empagliflozin], the “adverse left ventricular remodeling” value in data set [3] is on record as “ameliorates adverse left ventricular remodeling”. For the same compound, the “risk for the composite endpoint of cardiovascular death or hospitalization due to heart failure” value in data set [4] is reported as “reduced the risk”.
`COc1ccc(-c2nc3ccc(C4=NNC(=O)CC4C)cc3[nH]2)cc1` (centres unmarked) [pimobendan]: the preclinical period result in the data set with Stage B2 dogs (MMVD) was “prolongation of the preclinical period”.
